Laboratory results taken from the supplement of paper PMC10307832.

Compound: CC(C)(C)c1nc(-c2cccc(NS(=O)(=O)c3c(F)cccc3F)c2F)c(-c2ccnc(N)n2)s1 [Dabrafenib] + Nc1ncn([C@H]2C[C@H](O)[C@@H](CO)O2)c(=O)n1 [Decitabine] (partner 2 µM)
Test: relative viability (nuclei count vs DMSO), 5 days (fraction); higher = more cells survive
Conditions: first compound 0.003 µM
Method in brief: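 After 5 days of treatment, lung cancer cells in 1536-well plates were fixed and stained in a single step (final 0.05% Triton X-100, 1% formaldehyde, 1 ug/ml Hoechst) and their nuclei counted on 4× images. Treatment had been applied by pin tool the day after seeding as one drug alone or as a fixed anchor-drug dose with five library-drug doses (not always all listed) in √10 steps. Relative viability is the nuclei count of treated wells divided by that of vehicle wells, and values are medians of duplicate plates.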

Row | Cell Line | relative viability
1 | H3255 | 0.539
2 | SW 1573 | 0.448
3 | NCI-H838 | 0.436
4 | NCI-H3122 | 0.567
5 | NCI-H1915 | 0.264
6 | NCI-H727 | 0.53
7 | NCI-H1975 | 0.373
8 | HCC-366 | 0.392
9 | NCI-H661 | 0.656
10 | NCI-H1993 | 0.564
11 | NCI-H2009 | 0.359
12 | NCI-H520 | 0.583
13 | LXF-289 | 0.353
14 | LC-2-ad | 0.749
15 | 201T | 0.853
16 | NCI-H1666 | 0.69
17 | NCI-H2023 | 0.236

Same assay, conditions: first compound 0.009487 µM

Row | Cell Line | relative viability
18 | LU99A | 0.954
19 | EKVX | 0.38
20 | COR-L23 | 0.47
21 | NCI-H1437 | 0.55
22 | RERF-LC-KJ | 0.724
23 | NCI-H1734 | 0.456
24 | BEN | 0.865
25 | NCI-H460 | 0.486
26 | H3255 | 0.704
27 | SK-LU-1 | 0.657
28 | NCI-H23 | 0.343
29 | SW 1573 | 0.545
30 | NCI-H838 | 0.466
31 | EPLC-272H | 0.393
32 | NCI-H3122 | 0.404
33 | NCI-H1915 | 0.262
34 | NCI-H727 | 0.8
35 | NCI-H1975 | 0.413

Row | Cell Line | relative viability
36 | HCC-366 | 0.33
37 | NCI-H2087 | 0.305
38 | LCLC-97TM1 | 0.19
39 | NCI-H661 | 0.57
40 | NCI-H2405 | 0.742
41 | NCI-H1993 | 0.719
42 | PC-3 [JPC-3] | 0.865
43 | NCI-H2009 | 0.38
44 | NCI-H2347 | 0.657
45 | NCI-H520 | 0.515
46 | LXF-289 | 0.353
47 | LC-2-ad | 0.753
48 | 201T | 0.825
49 | NCI-H1666 | 0.813
50 | NCI-H2023 | 0.222
51 | NCI-H322M | 0.72
52 | HARA | 0.537

Same assay, conditions: first compound 0.03 µM

Row | Cell Line | relative viability
53 | LU99A | 0.708
54 | EKVX | 0.29
55 | COR-L23 | 0.41
56 | NCI-H1437 | 0.626
57 | RERF-LC-KJ | 0.655
58 | NCI-H1734 | 0.471
59 | NCI-H460 | 0.457
60 | H3255 | 0.585
61 | SK-LU-1 | 0.569
62 | NCI-H23 | 0.352
63 | SW 1573 | 0.488
64 | NCI-H838 | 0.497
65 | EPLC-272H | 0.367
66 | NCI-H3122 | 0.397
67 | NCI-H1915 | 0.256
68 | NCI-H1975 | 0.355

Row | Cell Line | relative viability
69 | HCC-366 | 0.404
70 | NCI-H2087 | 0.352
71 | LCLC-97TM1 | 0.184
72 | NCI-H661 | 0.575
73 | NCI-H2405 | 0.529
74 | NCI-H1993 | 0.538
75 | PC-3 [JPC-3] | 0.872
76 | NCI-H2009 | 0.397
77 | NCI-H2347 | 0.598
78 | NCI-H520 | 0.392
79 | LXF-289 | 0.372
80 | LC-2-ad | 0.776
81 | 201T | 0.731
82 | NCI-H1666 | 0.789
83 | NCI-H2023 | 0.196
84 | HARA | 0.595

Same assay, conditions: first compound 0.09487 µM

Row | Cell Line | relative viability
85 | LU99A | 0.85
86 | EKVX | 0.44
87 | COR-L23 | 0.432
88 | NCI-H1437 | 0.513
89 | RERF-LC-KJ | 0.731
90 | NCI-H1734 | 0.488
91 | BEN | 0.721
92 | NCI-H460 | 0.463
93 | H3255 | 0.625
94 | SK-LU-1 | 0.571
95 | NCI-H23 | 0.333
96 | SW 1573 | 0.589
97 | NCI-H838 | 0.428
98 | EPLC-272H | 0.365
99 | NCI-H3122 | 0.429
100 | NCI-H1915 | 0.255
101 | NCI-H727 | 0.877
102 | NCI-H1975 | 0.4

Row | Cell Line | relative viability
103 | HCC-366 | 0.364
104 | NCI-H2087 | 0.278
105 | LCLC-97TM1 | 0.197
106 | NCI-H661 | 0.573
107 | NCI-H2405 | 0.692
108 | NCI-H1993 | 0.68
109 | PC-3 [JPC-3] | 0.812
110 | NCI-H2009 | 0.339
111 | NCI-H2347 | 0.706
112 | NCI-H520 | 0.459
113 | LXF-289 | 0.397
114 | LC-2-ad | 0.771
115 | 201T | 0.846
116 | NCI-H1666 | 0.674
117 | NCI-H2023 | 0.214
118 | NCI-H322M | 0.656
119 | HARA | 0.539

Same assay, conditions: first compound 0.3 µM

Row | Cell Line | relative viability
120 | LU99A | 0.907
121 | EKVX | 0.353
122 | COR-L23 | 0.279
123 | NCI-H1437 | 0.43
124 | RERF-LC-KJ | 0.705
125 | NCI-H1734 | 0.337
126 | BEN | 0.656
127 | NCI-H460 | 0.129
128 | H3255 | 0.649
129 | SK-LU-1 | 0.484
130 | NCI-H23 | 0.32
131 | SW 1573 | 0.357
132 | NCI-H838 | 0.335
133 | EPLC-272H | 0.442
134 | NCI-H3122 | 0.373
135 | NCI-H1915 | 0.243
136 | NCI-H727 | 0.818
137 | NCI-H1975 | 0.312

Row | Cell Line | relative viability
138 | HCC-366 | 0.176
139 | NCI-H2087 | 0.213
140 | LCLC-97TM1 | 0.194
141 | NCI-H661 | 0.514
142 | NCI-H2405 | 0.574
143 | NCI-H1993 | 0.618
144 | PC-3 [JPC-3] | 0.804
145 | NCI-H2009 | 0.358
146 | NCI-H2347 | 0.616
147 | NCI-H520 | 0.342
148 | LXF-289 | 0.351
149 | LC-2-ad | 0.689
150 | 201T | 0.769
151 | NCI-H1666 | 0.751
152 | NCI-H2023 | 0.135
153 | NCI-H322M | 0.737
154 | HARA | 0.499
